Measured values reported in US20250041299A1, “THERAPEUTIC TARGETING OF GASTROINTESTINAL STROMAL TUMOR (GIST) BY DISRUPTING THE MENIN-MLL EPIGENETIC COMPLEX” (DANA-FARBER CANCER INSTITUTE, INC., priority 2021, published 2025).
“And” between values parts separate entries of the source, which are not always exact repeats. Equal values may be shown once.

Tests used:
[1] = system: GIST-T1 cell line xenografts; assay: GIST-T1 cell line xenograft, tumor volume; format: in vivo, mice; conditions: for tumor volume relative to baseline: WM-1119 50 mg/kg gavage 3 times daily, one value per animal 1-6
Excerpt: Xenograft Models. The PG27 patient derived xenograft was obtained from a patient undergoing clinically indicated surgery and following written informed consent to a Dana-Farber Cancer Institute IRB-approved research protocol. Cryopreserved tumor or the GIST-T1 cell line mixed 1:1 with matrigel were implanted subcutaneously into 6-week-old female nude mice (NU/NU; Charles River Laboratories). GIST-T1 tested negative for mycoplasma and rodent pathogens (Charles River Laboratories). For in vivo assessment of CRISPR/Cas9)-modified cell line growth. GIST-T1/Cas9 cells were treated with the indicated sgRNAs and selected with puromycin in vitro for 14 days prior to bilateral flank implantation. For drug treatment studies, singly engrafted mice were enrolled into treatment groups when tumors reached approximately 100-200 mm^3 in size, as measured by calipers and determined by the tumor volume equation: […]. […] WM-1119 (50 mg/kg gavage 3 times daily. 7 days per week). VTP-50469 (0.1% in chow) or combination treatments. […] Tumors were dissected and fixed in 10% formalin for corollary studies including H&E staining and immunohistochemistry of sectioned tumors. 4 μm sections were cut from fixed and embedded tumors and stained with Ki-67 (1:400, Cell Signaling Technology Cat #9027) and cleaved caspase-3 (1:250, Cell Signaling Technology Cat #9579). Reactions were developed using DAB (Cell Signaling Technology Cat #8059) or NovaRed (Vector Laboratories Cat #SK-4800) substrate kits per manufacturer recommendations. All procedures were conducted under protocols approved by the Institutional Animal Care and Use Committee at Dana-Farber Cancer Institute.

GIST-T1 cells [2] = assay: RNA-seq and GSEA of drug-treated GIST-T1 cells; format: cell-based, human
Protocol: (§1) RNA-seq. Total RNA was isolated using a RNeasy Plus Kit (Qiagen Cat #74136), and concentration measured by Nanodrop (Thermo Fisher Scientific) and quality by TapeStation 4200 (Agilent). Library preparation was performed using the NEBNext Ultra II DNA Library Prep Kit (New England Biolabs Cat #E7645S). Paired-end 150 bp sequencing was performed on a NovaSeq 6000 (Illumina). RNA-seq data were aligned to hg19 using STAR (Dobin et al., Bioinformatics 29:15-21 (2012)) with expression quantification using Cufflinks (Trapnell et al., Nat. Biotechnol. 28:511-5 (2010)) to generate gene expression values in fragments per kilobase of transcript per million mapped reads (FPKM) units. Gene set enrichment analysis (GSEA, RRID: SCR_003199) (Subramanian et al., Proc. Natl. Acad. Sci. USA 102:15545-50 (2005)) was performed using Hallmark gene lists in the Molecular Signatures Database.

GIST-T1 xenografts = assay: RNA-seq on GIST-T1 xenografts; format: in vivo, mice; conditions: 5 and 10 days of treatment
Protocol: as §1, with “Database. Xenograft Models. […] VTP-50469 (0.1% in chow) or combination treatments.” for “Database.”

GIST cells [3] = assay: Apoptosis and cell death (Annexin V / 7-AAD, Guava Nexin); format: cell-based, human; conditions: 72-hour treatment, imatinib 0.5 μM
Protocol: Cell cycle and apoptosis. […] Cells were trypsinized, washed in PBS and fixed in 70% ethanol. Propidium iodide at 25 μg/mL (Life Technologies Cat #P1304MP) and RNAse A at 0.2 mg/mL (Thermo Fischer Scientific Cat #EN0531) were used to stain nuclear DNA. Analysis was performed on a Guava easyCyte Flow Cytometer (Luminex Corporation), and single cells were assessed for nuclear content using Guava InCyte software. […] Non-apoptotic cells stain negative for Annexin V and 7-AAD, early apoptotic cells stain positive for Annexin V but negative for 7-AAD and late apoptotic and dead cells stain positive for both Annexin V and 7-AAD. Staining was assayed on a Guava easyCyte Flow Cytometer and data analyzed using Guava InCyte software.

GIST cells [4] = assay: Cell cycle analysis (propidium iodide, flow cytometry); format: cell-based, human; conditions: 72 hours imatinib
Protocol: Cell cycle and apoptosis. […] Cells were trypsinized, washed in PBS and fixed in 70% ethanol. Propidium iodide at 25 μg/mL (Life Technologies Cat #P1304MP) and RNAse A at 0.2 mg/mL (Thermo Fischer Scientific Cat #EN0531) were used to stain nuclear DNA. Analysis was performed on a Guava easyCyte Flow Cytometer (Luminex Corporation), and single cells were assessed for nuclear content using Guava InCyte software. Apoptosis and cell death were measured following 72 h of drug treatment using Guava Nexin Reagent (Luminex Corporation Cat #4500-0450) per manufacturer's recommendations. Non-apoptotic cells stain negative for Annexin V and 7-AAD, early apoptotic cells stain positive for Annexin V but negative for 7-AAD and late apoptotic and dead cells stain positive for both Annexin V and 7-AAD. Staining was assayed on a Guava easyCyte Flow Cytometer and data analyzed using Guava InCyte software.

GIST-T1 cells [5] = assay: Growth over time assay in GIST-T1; format: cell-based, human; conditions: all doses tested; day 21 cell count
Excerpt: Cell Culture and Virus Production. All cell lines tested negative for mycoplasma infection on routine surveillance (MilliporeSigma Cat #MP0025-1KT). Human embryonic kidney (HEK) 293 FT (Thermo Fisher Scientific Cat #R70007, RRID: CVCL_6911) and the GIST cell lines GIST-T1 (Cosmo Bio Cat #PMC-GIST01-COS, RRID: CVCL_4976; KIT mutation in exon 11 Δ560-578), GIST430 (RRID: CVCL_7040; KIT mutation in exon 11 Δ560-576), GIST48B (RRID: CVCL_M441: KIT-independent), and GIST882 (RRID: CVCL_7044: KIT mutation in exon 13 K642E) were cultured in Dulbecco's modified Eagle's medium containing 10% FBS, 2 mM L-glutamine, […], and […]. KIT rescue cell lines, which are independent of the KIT enhancer, were generated as previously described (Hemming et al., Cancer Research 79:994-1009 (2019)). Non-commercial cell lines were obtained from the laboratory of Jonathan Fletcher between 2014 and 2016. KIT exons were sequenced to confirm the expected coding mutations and cell identity of GIST cell lines, and cells were thawed from original or derived stocks and used in the described experiments within approximately 3 months. Transfections were performed with X-tremeGene (Roche, Cat #6365809001). Lentiviral production was performed as previously described (Hemming et al., PLOS Biol. 6: e2571-15 (2008)). […]

For `O=C(NNS(=O)(=O)c1ccccc1F)c1cc(F)cc(-c2ccccn2)c1` [WM-1119, 2-fluoro-N′-(3-fluoro-5-(pyridin-2-yl)benzoyl)benzenesulfonohydrazide], the “tumor volume relative to baseline” value ([1]; treatment day 1 (baseline)) was 100, the “tumor volume relative to baseline” value ([1]; treatment day 5, 50 mg/kg) was 175 and 211 and 114 and 133 and 87 and 152 and the “tumor volume relative to baseline” value ([1]; treatment day 8, 50 mg/kg) was 480 and 322 and 157 and 173 and 131 and 206. For the same compound, the “tumor volume relative to baseline” value ([1]; treatment day 12, 50 mg/kg) was 518 and 368 and 287 and 160 and 145 and 260, the “tumor volume relative to baseline” value ([1]; treatment day 14, 50 mg/kg) was 527 and 429 and 327 and 181 and 163 and 328 and the “tumor volume relative to baseline” value ([1]; treatment day 19, 50 mg/kg) was 876 and 501 and 511 and 180 and 268 and 277. For the same compound, the “tumor volume relative to baseline” value ([1]; treatment day 22, 50 mg/kg) was 878 and 409 and 489 and 150 and 205 and 361, the “tumor volume relative to baseline” value ([1]; treatment day 27, 50 mg/kg) was 856 and 525 and 558 and 202 and 232 and 317 and the “tumor volume relative to baseline” value ([1]; treatment day 29, 50 mg/kg) was 874 and 532 and 648 and 199 and 221 and 353. The “tumor growth compared to vehicle” value ([1]; end of 28-day treatment period) was “significant reductions in tumor growth”, the “expression of GIST TFs” value (GIST-T1 cells [2]; GIST-T1, 5 days) was “greatest global reduction in TF expression” and the “global gene expression change (RNA-seq) versus DMSO” value (GIST-T1 cells [2]; GIST-T1 treated 1 and 5 days) was “modestly altered expression of numerous genes”.

`Cc1ccc(NC(=O)c2ccc(CN3CCN(C)CC3)cc2)cc1Nc1nccc(-c2cccnc2)n1` [imatinib] was tested, and the “KIT signaling-dependent transcripts TMEM100 and SPRY2 in xenografts” value (GIST-T1 xenografts) was “preferentially reduced”, the “expression of genes regulated by HAND1 in xenografts” value (GIST-T1 xenografts) was “decrease in the expression of genes regulated by HAND1” and the “apoptosis and cell death versus DMSO” value (GIST cells [3]) was “significant increase in early and late-phase apoptosis and cell death”. For the same compound, the cell cycle effect (GIST cells [4]) was “G0/G1 cell cycle arrest”.

`CC(C)N(C[C@H]1O[C@@H](n2cnc3c(N)ncnc32)[C@H](O)[C@@H]1O)[C@H]1C[C@@H](CCc2nc3cc(C(C)(C)C)ccc3[nH]2)C1` [EPZ-5676] was tested, and the “cellular proliferation of GIST-T1 compared to DMSO control or GIST48B” value (GIST-T1 cells [5]) was “significantly reduced cellular proliferation”, the “HAND1-regulated transcriptional programs (GSEA)” value (GIST-T1 cells [2]; GIST-T1, 5 days) was “significant disruption” and the “correlation of transcriptional changes with those of VTP-50469” value (GIST-T1 cells [2]; GIST-T1, 5 days, RNA-seq) was “highly correlated”.
